Results taken from patent US20250122193A1, “NOVEL PYRIDOCARBAZOLIUM COMPOUNDS AND MEDICAL USES THEREOF” (MyCural Therapeutics, priority 2021, published 2025).

Legend:
MYCN = biological target: T1, MYCN (Homo sapiens, UniProt P04198); assay: MYCN expression in Kelly neuroblastoma cells; type: cell-based
T1 construct: endogenous in cells; host or cells: Kelly neuroblastoma cells
Procedure: (§1) For western blot equal amounts of proteins ([…]) were separated on a 4-12% SDS-PAGE gel. Proteins were transferred to Immobilion-P membrane (Millipore) and detected by immunostaining and chemoluminescence (Immobilion western HRP substrate; Millipore). For immunoprecipitations 500-1000 μg of protein was used. […] Briefly, cells were crosslinked with 1% formaldehyde on ice for 6 minutes. Nuclear chromatin was sonicated on ice to fragments from 0.3 kb to 0.5 kb. Nuclear chromatin equivalent to 2.5×10^7 cells was immunoprecipitated with 2 μg antibody.

[1] = system: SKN-DZ neuroblastoma cells with MYCN-amplification; assay: 3D colony formation in agarose, SK-N-DZ; type: cell-based; conditions: 3D cultures, 2 weeks
[2] = system: MYC target genes CR2, RGS16, CAMKV and nucleolin; assay: MYC transactivation of target genes in U2OS-MYCER cells, RT-qPCR; type: cell-based; conditions: 5 μM, 24 hours
[3] = system: primary normal human epidermal melanocytes (NHEM); assay: cell growth and trypan blue viability, NHEM; type: cell-based; conditions: 72 hours
Procedure: FIG. 4: MYCMI-7 induces apoptosis in malignant cells and growth arrest in normal cells. A) Cell cycle distribution analysis by flow cytometry of MYC-regulated P493-6 cells and normal rat embryo fibroblasts (REFs). Left panel, P493-6 synchronized in G0 by 24 hours treatment of […] doxycycline. Doxycycline was removed and the cells were harvested 48 hours after the addition of fresh medium containing DMSO or 5 μM MYCMI-7. Right panel, flow cytometry analysis of normal REFs treated with DMSO or 5 μM MYCMI-7. B) Apoptosis assay using the Cell Death Detection ELISA^plus kit. Left panel, immortalized Rat1 fibroblasts with different MYC status after 24 hours of 5 μM MYCMI-7 treatment, middle panel and right panels, normal REFs and normal peripheral blood lymphocytes, respectively, after 24 and 48 hours of 5 μM MYCMI-7 treatment. C) Measurement of viability and apoptosis by Apo-Tox Glo Triplex assay in A375 melanoma cells after 3 days of treatment with MYCMI-7 with the indicated concentrations. […] E) NHDFs treated with 3 μM MYCMI-7 for 72 hrs. Viability was measured by trypan blue exclusion assay. F) Cell growth measured with Cyt62 assay of primary normal human epidermal melanocytes (NHEM) treated for 72 hours with MYCMI-7, G) Viability measured by trypan blue exclusion assay of NHEM after treatment for 72 hours with MYCMI-7.

phosphorylation of ATM = assay: phospho-ATM and p53 by western blot, A375; type: cell-based; conditions: 5 μM, A375 cells, 3 hrs
Procedure: A) Measurement of MYC mRNA expression by RTqPCR after treatment with MYCMI-7 and different topoisomerase inhibitors at indicated concentrations. […] D) Western blot analysis of p53 and p21 expression after exposure to 5 μM MYCMI-7, ellipticine or camptothecin (CPT) in HCT116 cells. E) Western blot analysis of phospho-ATM, total ATM and p53 expression after exposure to indicated concentrations of MYCMI-7 and ellipticine in A375 cells after 3 hrs treatment.
as §1

[4] = system: MDA-MB-231 xenograft tumors; assay: MDA-MB-231 xenograft
[5] = system: MCF-7 breast carcinoma cells; assay: RNA-seq gene set enrichment analysis; conditions: 5 μM, 24 hrs
MYC:MAX interaction = MYC:MAX interaction (Homo sapiens, UniProt P01106); assay: split Gaussia luciferase (GLuc) assay, MYC:MAX; type: cell-based; set-up: replacing the existing Zip-gene (GCN4) with full length MYC, MYCN or MAX cDNA; expressed in transfected cells; host or cells: HeLa; conditions: 5 μM
Sequence of MYC:MAX interaction (P01106 16-454): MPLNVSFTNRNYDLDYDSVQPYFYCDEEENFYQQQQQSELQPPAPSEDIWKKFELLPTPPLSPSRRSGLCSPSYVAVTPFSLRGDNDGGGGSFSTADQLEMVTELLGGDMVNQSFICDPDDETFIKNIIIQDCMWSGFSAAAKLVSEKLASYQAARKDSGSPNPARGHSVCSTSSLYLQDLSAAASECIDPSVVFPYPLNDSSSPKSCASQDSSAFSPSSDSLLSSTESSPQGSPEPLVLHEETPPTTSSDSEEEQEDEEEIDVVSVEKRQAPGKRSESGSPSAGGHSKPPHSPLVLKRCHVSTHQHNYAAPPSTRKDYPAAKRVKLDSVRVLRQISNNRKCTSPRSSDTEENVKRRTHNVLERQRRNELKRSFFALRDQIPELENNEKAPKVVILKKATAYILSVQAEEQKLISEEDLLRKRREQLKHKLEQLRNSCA
Procedure: A) Molecular structure of MYCMI-7. B-E) split Gaussia luciferase (GLuc) assay. MYC or MYCN and MAX Gluc constructs were co-transfected into HeLa cells together with a firefly luciferase vector. 24 hours post transfection cells were treated with compounds, and after another 17-24 hours cells were harvested and both GLuc and firefly luciferase activities were measured. The mean of three different experiments is shown. Treatment with: B) 5 μM of MYCMI-7, 64 μM 10058-F4 or 5 μM JQ1, respectively, C) 6.5 μM MYCMI-7 on cells expressing MYC:MAX GLuc vs. GCN4:GCN4 GLuc, D) 5 μM MYCMI-7 and 5 μM ellipticine. E) 5 μM MYCMI-7 for various time points. F) in situ proximity ligation assay (isPLA). […] MYC:GAL4 was used as negative control in the isPLA assay. G) Quantification of isPLA dots. (H) Co-immunoprecipitation (co-IP) of endogenous MYC and MAX proteins from MCF7 cells after treatment with 5 μM MYCMI-7 at various times. IP=immunoprecipitation; W=western blot. I) Chromatin immunoprecipitation (ChIP) of MYC at the ODC1 target gene promoter after treatment of cells with 5 μM MYCMI-7 for 6 hours. J) MYC target gene ODC1 expression after treatment with 5 μM MYCMI-7, quantified by qPCR. K) ChIP of MYC at the ODC promoter in MCF7 cells after 5 μM MYCMI-7 treatment for indicated time points. L) Recombinant MYC bHLHZip protein domain immobilized onto a CM5 chip was subjected to various concentrations of MYCMI-7 and the complex of MYCbHLHZip-MYCMI-7 was measured as response units by SPR. The sensogram was produced by subtracting the blank response.
0.2-0.4 μg of each GLuc-construct together with 0.05 μg pCMV-LUC (firefly luciferase) were used per transfection in 12 well plates. 24 hours later cells were treated with compound or DMSO. After another 17 hours, the cells were harvested and lyzed in passive lysis buffer (Promega) supplemented with complete protease inhibitor (Roche). After 60 min incubation at room temperature 20 μM D-luciferin was added (substrate of Firefly luciferase) and luminescence was measured in a Lumat LB9501 (Berthold) or OmegaFluostar (BMG Labtech) luminometer. Directly after, Gaussia luciferase substrate Coelenterazine (Promega) was added to a final concentration of 20 μM in a mixture with “Stop n' Glow” (Promega) and the luciferase activity was measured. The ratio between Gaussia and Firefly luciferase values were calculated and normalized to DMSO-treated control cells.

[6] = 6.25 mg/kg intratumoral twice weekly

T1 sequence (P04198 whole entry): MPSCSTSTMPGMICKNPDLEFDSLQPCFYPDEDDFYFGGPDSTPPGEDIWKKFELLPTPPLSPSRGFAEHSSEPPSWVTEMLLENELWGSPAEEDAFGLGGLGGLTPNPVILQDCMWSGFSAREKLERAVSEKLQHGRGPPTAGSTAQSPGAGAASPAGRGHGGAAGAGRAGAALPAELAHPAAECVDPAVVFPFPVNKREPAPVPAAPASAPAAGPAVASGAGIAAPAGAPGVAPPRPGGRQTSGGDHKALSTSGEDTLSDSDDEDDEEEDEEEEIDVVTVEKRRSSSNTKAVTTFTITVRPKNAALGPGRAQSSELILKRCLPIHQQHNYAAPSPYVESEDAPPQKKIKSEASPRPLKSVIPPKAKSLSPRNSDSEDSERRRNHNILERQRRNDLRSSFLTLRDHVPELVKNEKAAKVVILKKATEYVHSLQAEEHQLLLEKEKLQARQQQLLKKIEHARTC

CCN(CC)CC[n+]1ccc2c(C)c3[nH]c4ccccc4c3c(C)c2c1 [MYCMI-7, 2-(5,11-Dimethyl-6H-25-pyrido[4,3-b]carbazol-2-yl)-N,N-diethylethanamine bromide]
Expression of MYCN (MYCN): reduced
GI50 [1]: nanomolar range
4-OHT-induced expression of CR2, RGS16, CAMKV and nucleolin [2]: significantly reduced
cell death (trypan blue) [3]: did not induce cell death
metabolic activity [3]: reduced metabolic activity
phosphorylation of ATM and p53 expression (DDR signaling) (phosphorylation of ATM): only a slight increase
survival [4, 6]: significantly increased survival
tumor growth [4, 6]: slowed down considerably
H&E staining of tumor areas ([4]; mouse, in vivo): extensive necrosis/apoptosis
MYC expression in tumors (IHC) ([4]; mouse, in vivo): reduced expression of MYC
TUNEL staining ([4]; mouse, in vivo): increased TUNEL staining
caspase 3 expression in tumors (IHC) ([4]; mouse, in vivo): increased caspase 3 expression
proliferation and microvascular density (Ki67, CD31) ([4]; mouse, in vivo): reduced proliferation and microvascular density
GSEA of differentially expressed genes: MYC and E2F target genes [5]: downregulation
time of treatment within which MYC:MAX interaction was inhibited (MYC:MAX interaction): ≤ 4 h
inhibition of MYC:MAX GLuc interaction (MYC:MAX interaction; HeLa cells): inhibited
